Values quoted from earlier work as cited in US20080095831A1, “TOPICAL FORMULATION OF […] […] COMPOSITION FOR PERCUTANEOUS ABSORPTION OF […] ACTIVE AGENT” (priority 2006, published 2008).
Where a name gives a salt, the structure may show the parent alone.

Row | solubility in water (in words) | SMILES | also measured
1 | water-soluble | CCCCC(C)(O)C/C=C/[C@H]1[C@H](O)CC(=O)[C@@H]1CCCCCCC(=O)OC (mixture of isomers) [Misoprostol] | –
2 | freely soluble | CN(C)CCC=C1c2ccccc2CCc2ccccc21 [Amitriptline] | –
3 | insoluble | CC(=O)[C@H]1CC[C@H]2[C@@H]3CCC4=CC(=O)CC[C@]4(C)[C@H]3CC[C@]12C [Progesterone] | –
4 | – | CC/C(=C(\c1ccccc1)c1ccc(OCCN(C)C)cc1)c1ccccc1 [Tamoxifen citrate] | collagen production (keloid cells): decrease; keloid fibroblast production (keloid cells): inhibit; effect on keloid cells (keloid cells; concentration of about 0.01%): deadly effect
5 | freely soluble | Clc1cccc(Cl)c1N=C1NCCN1 [clonidine hydrochloride] | –
6 | freely soluble | NC(=O)c1cccnc1 [nicotinamide] | –

Row | SMILES | solubility in water (in words) | also measured
7 | O=[N+]([O-])O[C@H]1CO[C@H]2[C@@H]1OC[C@H]2O[N+](=O)[O-] [Isosorbide dinitrate] | sparingly soluble | –
